Reference: patent publication US10800806B2, “Sterol derivatives and use thereof for treating diseases involving transformed astrocyte cells or for treating malignant haemopathies” (BETA INNOV, priority 2012, dated 2020)

How the values were obtained:
[1] = system: liver cells; assay: Toxicity in vitro on primary cultures of liver cells; type: cell-based, human; conditions: 30 μM, at least 30 days of treatment
Protocol: Of human origin, they were obtained from ScienCell, USA (ref. 50200) as was the culture medium (ref. 5201), which contains 10% (v/v) FCS. The doubling time of these cells is 24 h. • Renal cells
(§1) The same methods are used for both cases. For the activity, the anti-GBM potential of the test compounds is used, and the toxicity, is tested on normal cells of human origin maintained “in vitro”.
(§2) The cells used are liver cells (ScienCell, USA, ref. 50200), kidney cells (ScienCell, USA, ref. 4120), skeletal muscle cells (ScienCell, USA, ref. 3500) and cardiac cells (ScienCell, USA, ref. 6300), of human origin, mentioned above (section II, A).

[2] = system: cardiac cells; assay: Toxicity in vitro on primary cultures of cardiac cells; type: cell-based, human; conditions: 30 μM, at least 30 days of treatment
Protocol: These cells, of human origin, were obtained from ScienCell, USA (ref. 6300) as was the culture medium, which contains 10% (v/v) FCS. The doubling time is 72 h. • Skeletal muscle cells
as §1, §2

[3] = system: kidney cells; assay: Toxicity in vitro on primary cultures of kidney cells; type: cell-based, human; conditions: 30 μM, at least 30 days of treatment
Protocol: These cells, of human origin, were obtained from ScienCell, USA (ref. 4120) as was the culture medium (ref. 4101), which contains 10% (v/v) FCS. The doubling time is 96 h. • Cardiac cells
as §1, §2

[4] = system: normal (non-cancerous) human astrocytes; assay: Toxicity in vitro on primary cultures of normal human astrocytes; type: cell-based; conditions: 30 μM, after 30 days of treatment
Protocol: The astrocyte cells of human origin used were obtained from ScienCell, USA (ref. 1800) as well as their culture medium, made up of basic medium containing 2% (v/v) FCS serum (ref. 0010), astrocyte growth proteins (AGS, ref. 1852) and a solution of penicillin/streptomycin (ref. 0503). The doubling time of these human astrocytes is 96 h. • Hepatic cells
as §1
The cells used are cells of human origin (ScienCell, USA, ref. 1800), mentioned above (section II, A).
The astrocyte type is validated by the presence of GFAP, the standard marker of normal astrocytes (FIG. 11; magnification×200).

[5] = system: human glioblastoma lines (GBM, line U-87 MG); assay: Anti-GBM activity in vitro on cultures of human U87-MG cells, cell aggregates (CA); type: cell-based
Protocol: Plastic flat-bottomed 96-well culture plates (NUNC, USA) treated for cell culture (Sigma-Aldrich, ref. 114754) are used; 1500 cells are seeded per well in 200 μl of culture medium. At the time of treatment, 100 μl of pure culture medium, 100 μl of culture medium containing ethanol, or liposomes, or 100 μl of culture medium containing the active ingredients are added per well; the final volume of the culture medium, after treatment, is therefore 300 μl for all the wells.
The human glioblastoma lines (GBM, line U-87 MG) and their culture medium (Eagle's Minimum Essential Medium or EMEM) were obtained from ATCC (USA, ref. ATCC-HTB-14). Culture of the cells is started and maintained according to the recommendations of the ATCC. These lines are commonly used “in vitro” and “in vivo” for testing anti-GBM potential. The doubling time of these lines is 16 h.
The active ingredients are either dissolved in absolute ethanol (AnalaR, NORMAPUR, VWR, France) or in the form of a liposomal solution, such as 10 μl of the stock solutions diluted in 990 μl and then added to the culture wells ([…] medium per well BI-GBM: 300 μl).
When the active ingredients are in ethanolic solution, the culture medium contains […] ethanol (v/v).
Briefly, the compounds to be tested, namely the compounds according to the invention (active ingredients) or 7β-OHCH—C3-ester (a derivative of 7beta-hydroxysterol esterified in position 3 with an oleate group, the synthesis of which is described by Rakotoarivelo et al. (18) and used as control), soya phosphatidylcholine (Sigma) as well as cholesteryl-3-sulphate (Sigma) are taken from their stock solutions prepared from dichloroethane in the case of the active ingredients and the 7β-OHCH—C3-ester, a chloroform:methanol mixture (9:1, v/v) in the case of phosphatidylcholine and chloroform in the case of cholesteryl-3-sulphate. The molar ratios are 1 M/0.1 M/0.25 M for phosphatidylcholine, cholesteryl-3-sulphate and the 7β-OHCH—C3-ester and the active ingredients respectively.
After evaporation, a solution of PBS saline, without Ca^2+ and Mg^2+, pH7.2 (BioRad) is added to the dry compound. The volume of buffer and the mass of the products are adjusted so that 20 or 10 μl of liposomes added to 90 μl of culture medium gives the desired final concentrations. The liposomes are formed by the extrusion technique with Liposofast (Sodexim, SA Muizon, France). The solution is passed through polycarbonate filtration membranes (100 nm) 41 times. The liposomes are sterilized by filtration on […] Millipore membranes.
For example, in the case of the cultures in 96-well plates and as a function of the magnification of the microscope used (objectives×10 or ×20, oculars×10), a photograph taken represents a field of view with a diameter equal to 1/5 of the diameter of a well. Therefore the total number of cells in a well is equal to […] the number of cells per photograph. This technique was compared with a standard technique (trypsinization of the cell layer, centrifugation of the cells, suspension of the cells in physiological saline solution and counting with a THOMA cell) in the case of the C6 cells. The results obtained are identical for both methods.
The culture medium is withdrawn from each well and 50 μl of Laemmli buffer (0.1 ml of Tris, 0.8 ml of glycerol, 1.6 mL of 10% SDS, 8 ml q.s.f ultrapure water) is added per well.
This test makes it possible to detect the cellular respiration, especially the mitochondrial respiration. The stock solution of tetrazolium salt MTT (3-(4,5-dimethylthiazol-2-yl)-2,5-diphenyl tetrazolium bromide, Sigma-Aldrich, USA, ref. M5655) is prepared with 10 mg of MIT/ml of PBS buffer (phosphate-buffered saline, SIGMA, ref. D 1408). This solution is added directly to the culture medium in each well; the final concentration of MTT is 25 μg/ml. The plate is then incubated at 37° C. for at least 1 h. […]

[6] = system: skeletal muscle cells; assay: Toxicity in vitro on primary cultures of skeletal muscle cells; type: cell-based, human; conditions: 30 μM, at least 30 days of treatment
Protocol: Of human origin, they were obtained from ScienCell, USA (ref. 3500) as was the culture medium (ref. 3501), which contains 10% (v/v) FCS. The doubling time for these cells is 72 h.
as §1, §2

Row | Structure (SMILES) | toxicity ([1]; liposomal form) | toxicity ([2]; liposomal form) | toxicity ([3]; liposomal form) | toxicity ([4]; liposomal form) | presence of GBM cells (CA) ([5]; 15 μM, liposomal form, 15 days of treatment) | cellular respiration before cell death ([5]; liposomal form) | MTT/cell relative to the controls ([5]; liposomal form, 8 days of treatment) [%] | cell multiplication after replacing the medium with fresh drug-free medium ([5]; liposomal form, medium replaced on the 13th day of treatment) | toxicity ([6]; liposomal form) | toxicity ([1]; ethanolic form) | toxicity ([2]; ethanolic form) | toxicity ([3]; ethanolic form) | toxicity ([4]; ethanolic form) | remaining GBM cells ([5]; 30 μM, ethanolic form, even after removing the active ingredient) | cellular respiration before cell death ([5]; ethanolic form) | reduction of the level of proteins relative to the untreated control cells ([5]; ethanolic form) [%] | cellular multiplication after replacement of the culture medium with fresh drug-free medium ([5]; medium replaced at 22 days) | toxicity ([6]; ethanolic form)
1 | CC(C)CCCC(C)C1CCC2C3C(OC(=O)OC(C)(C)C)C=C4CC(OC(=O)C5COC(C)(C)O5)CCC4(C)C3CCC12C (stereo not drawn) [Molecule 2.a, 7-((tert-butoxycarbonyl)oxy)-10,13-dimethyl-17-(6-methylheptan-2-yl)-2,3,4,7,8,9,10,11,12,13,14,15,16,17-tetradecahydro-1H-cyclopenta[a]phenanthren-3-yl 2,2-dimethyl-1,3-dioxolane-4-carboxylate] | not toxic | not toxic | not toxic | not toxic | zero | cellular respiration increases before cell death | 140 | no cell multiplication is observed | not toxic | – | – | – | – | – | – | – | – | –
2 | CC(=O)OC1C=C2CC(OC(=O)C3COC(C)(C)O3)CCC2(C)C2CCC3(C)C(C(C)CCCC(C)C)CCC3C12 (stereo not drawn) [Molecule 2.b, 7-acetoxy-10,13-dimethyl-17-(6-methylheptan-2-yl)-2,3,4,7,8,9,10,11,12,13,14,15,16,17-tetradecahydro-1H-cyclopenta[a]phenanthren-3-yl 2,2-dimethyl-1,3-dioxolane-4-carboxylate] | – | – | – | – | – | – | – | – | – | not toxic | not toxic | not toxic | not toxic | no GBM cell remains | cellular respiration increases before cell death | 100 | does not lead to any cellular multiplication | not toxic
